# Source: patent US7482379B2, “Propenoyl hydrazides” (priority 2004, dated 2009)
# Peptide text beside a SMILES is read from it. * marks the point of attachment. AFC = O=c1cc(C(F)(F)F)c2ccc(N*)cc2o1
# What was measured:
# [1] = target: Caspase-8 (Homo sapiens, UniProt Q14790); test: Caspase-8 progress curve inhibition assay; conditions: second-order rate constant; Ac-DEVD-AMC substrate; Pipes buffer pH 7.2
# [2] = target: T1, Caspase-10 (Homo sapiens, UniProt Q92851); test: Caspase-10 progress curve inhibition assay; conditions: second-order rate constant; Ac-DEVD-AMC substrate; Hepes/PEG buffer pH 7.0
# T1 sequence (Q92851 220-415 limits assumed): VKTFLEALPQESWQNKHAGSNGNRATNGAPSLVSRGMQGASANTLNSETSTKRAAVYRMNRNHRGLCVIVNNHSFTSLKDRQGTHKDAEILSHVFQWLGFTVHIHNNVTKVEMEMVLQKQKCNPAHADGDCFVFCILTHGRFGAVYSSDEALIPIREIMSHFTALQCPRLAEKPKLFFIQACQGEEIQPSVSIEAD
# T1 sequence (Q92851 416-521 limits assumed): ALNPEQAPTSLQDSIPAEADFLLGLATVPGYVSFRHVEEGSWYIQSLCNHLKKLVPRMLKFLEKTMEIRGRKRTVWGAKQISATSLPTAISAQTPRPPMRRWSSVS
# [3] = target: T2, Caspase-3 (Homo sapiens, UniProt P42574); test: Caspase-3 progress curve inhibition assay; conditions: for k2 Caspase-3: second-order rate constant, Ac-DEVD-AMC substrate, Pipes buffer pH 7.2
# T2 sequence (P42574 29-175 limits assumed): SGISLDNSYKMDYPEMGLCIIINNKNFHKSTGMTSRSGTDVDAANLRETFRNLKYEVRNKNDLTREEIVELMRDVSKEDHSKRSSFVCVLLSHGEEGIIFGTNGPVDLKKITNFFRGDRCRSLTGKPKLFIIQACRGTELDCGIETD
# T2 sequence (P42574 176-277 limits assumed): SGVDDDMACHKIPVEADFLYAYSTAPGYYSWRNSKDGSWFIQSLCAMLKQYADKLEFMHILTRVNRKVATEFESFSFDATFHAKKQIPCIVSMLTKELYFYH
# [4] = target: T3, Caspase-9 (Homo sapiens, UniProt P55211); test: Caspase-9 progress curve inhibition assay; conditions: for k2 Caspase-9: second-order rate constant, Ac-LEHD-AFC substrate, Hepes buffer pH 7.0 with 0.7 M sodium citrate
# T3 sequence (P55211 1-315 limits assumed): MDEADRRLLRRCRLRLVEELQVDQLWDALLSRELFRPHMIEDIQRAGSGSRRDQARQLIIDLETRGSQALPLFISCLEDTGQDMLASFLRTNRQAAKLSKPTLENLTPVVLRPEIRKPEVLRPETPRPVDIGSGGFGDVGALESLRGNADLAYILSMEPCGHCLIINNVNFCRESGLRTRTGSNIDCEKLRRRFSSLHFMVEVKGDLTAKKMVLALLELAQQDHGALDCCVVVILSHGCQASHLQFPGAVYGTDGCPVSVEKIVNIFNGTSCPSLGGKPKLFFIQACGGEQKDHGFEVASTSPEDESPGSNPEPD
# T3 sequence (P55211 331-416 limits assumed): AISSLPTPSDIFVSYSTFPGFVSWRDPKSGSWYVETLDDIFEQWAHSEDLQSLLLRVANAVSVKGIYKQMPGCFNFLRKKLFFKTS
# [5] = target: T4, Caspase-7 (Homo sapiens, UniProt P55210); test: Caspase-7 progress curve inhibition assay; conditions: second-order rate constant; Ac-DEVD-AMC substrate; Pipes buffer pH 7.2
# T4 sequence (P55210 24-198 limits assumed): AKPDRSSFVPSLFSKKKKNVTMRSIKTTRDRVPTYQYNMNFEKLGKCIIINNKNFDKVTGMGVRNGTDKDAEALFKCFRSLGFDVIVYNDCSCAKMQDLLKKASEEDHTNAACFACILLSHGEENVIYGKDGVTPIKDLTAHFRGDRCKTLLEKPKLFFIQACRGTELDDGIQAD
# T4 sequence (P55210 207-303 limits assumed): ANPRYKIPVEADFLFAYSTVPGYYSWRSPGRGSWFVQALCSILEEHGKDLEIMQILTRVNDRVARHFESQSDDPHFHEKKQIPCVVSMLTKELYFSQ
# [6] = target: T5, Caspase-6 (Homo sapiens, UniProt P55212); test: Caspase-6 progress curve inhibition assay; conditions: second-order rate constant; Ac-DEVD-AMC substrate; Pipes buffer pH 7.2
# T5 sequence (P55212 24-179 limits assumed): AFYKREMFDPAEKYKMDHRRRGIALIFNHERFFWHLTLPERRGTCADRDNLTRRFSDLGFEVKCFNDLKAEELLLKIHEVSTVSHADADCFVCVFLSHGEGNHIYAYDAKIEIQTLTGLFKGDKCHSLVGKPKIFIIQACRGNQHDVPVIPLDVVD
# T5 sequence (P55212 194-293 limits assumed): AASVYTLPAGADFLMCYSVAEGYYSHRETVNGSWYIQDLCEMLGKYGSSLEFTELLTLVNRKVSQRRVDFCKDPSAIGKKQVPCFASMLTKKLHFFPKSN
# [7] = target: T6, Caspase-2 (Homo sapiens, UniProt P42575); test: Caspase-2 progress curve inhibition assay; conditions: second-order rate constant; Cbz-VDVAD-AFC substrate; Pipes buffer pH 7.2
# T6 sequence (P42575 170-333 limits assumed): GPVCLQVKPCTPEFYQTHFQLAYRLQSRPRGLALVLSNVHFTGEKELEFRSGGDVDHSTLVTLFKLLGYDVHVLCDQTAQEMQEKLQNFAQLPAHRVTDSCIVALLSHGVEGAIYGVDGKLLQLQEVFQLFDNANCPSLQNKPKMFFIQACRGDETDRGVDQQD
# T6 sequence (P42575 348-452 limits assumed): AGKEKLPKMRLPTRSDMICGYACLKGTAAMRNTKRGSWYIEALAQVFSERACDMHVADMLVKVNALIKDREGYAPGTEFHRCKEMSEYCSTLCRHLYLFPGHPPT
# Caspase-8, sequence (Q14790 217-374 limits assumed): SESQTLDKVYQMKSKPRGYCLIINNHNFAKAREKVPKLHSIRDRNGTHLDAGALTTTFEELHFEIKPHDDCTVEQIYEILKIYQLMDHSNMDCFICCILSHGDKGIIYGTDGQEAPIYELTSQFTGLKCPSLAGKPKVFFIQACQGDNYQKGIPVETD
# Caspase-8, sequence (Q14790 385-479 limits assumed): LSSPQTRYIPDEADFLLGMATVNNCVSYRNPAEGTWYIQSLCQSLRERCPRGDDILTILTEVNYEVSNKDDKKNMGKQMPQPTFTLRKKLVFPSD
SMILES,k2 Caspase-3 [3],k2 Caspase-7 [5],k2 Caspase-6 [6],"Km ([4]; read-out: KM with caspase-9, substrate Ac-LEHD-AFC) [µM]",k2 Caspase-8 [1],k2 Caspase-10 [2],k2 Caspase-9 [4],k2 Caspase-2 [7] [M⁻¹ s⁻¹],selectivity: inhibits caspase-3 more potently than caspase-6 ([3]; ratio of k2 caspase-3 to caspase-6) [fold],selectivity: inhibits caspase-3 more potently than caspase-8 ([3]; ratio of k2 caspase-3 to caspase-8) [fold],k2 Caspase-3 ([3]; listed as Cbz-Asp-Glu-Val-AAsp-CH═CH—CON(Bzl)2)
"CC(C)[C@H](NC(=O)[C@H](CCC(=O)O)NC(=O)[C@H](CC(=O)O)NC(=O)OCc1ccccc1)C(=O)NN(CC(=O)O)C(=O)/C=C/C(=O)N(Cc1ccccc1)Cc1ccccc1 (relative stereo) [Cbz-Asp-Glu-Val-AAsp-CH═CH—CON(CH2Ph)2, N^2—(N-Benzyloxycarbonylaspartylglutamylvalyl)-N^1-carboxymethyl-N^1-trans-(3-dibenzylcarbamoylpropenoyl)hydrazine]",–,"359,000 M^−1s^−1","5,100 M^−1s^−1",–,"8,600 M^−1s^−1","6,300 M^−1s^−1",450 M⁻¹ s⁻¹,110,588,348,"3,000,000 M^−1s^−1"
"CC(C)[C@H](NC(=O)[C@H](CCC(=O)O)NC(=O)[C@H](CC(=O)O)NC(=O)OCc1ccccc1)C(=O)NN(CC(=O)O)C(=O)/C=C/C(=O)NCCc1ccccc1 (relative stereo) [Cbz-Asp-Glu-Val-AAsp-CH═CH—CONHCH2CH2Ph, N^2—(N-Benzyloxycarbonylaspartylglutamylvalyl)-N^1-carboxymethyl-N^1-trans-(3-phenethylcarbamoylpropenoyl)hydrazine]","1,950,000 M^−1s^−1","267,000 M^−1s^−1","3,470 M^−1s^−1",–,"129,000 M^−1s^−1","31,400 M^−1s^−1",655 M⁻¹ s⁻¹,120,–,–,–
CC[C@H](C)[C@H](NC(=O)OCc1ccccc1)C(=O)N[C@@H](CCC(=O)O)C(=O)N[C@H](C(=O)NN(CC(=O)O)C(=O)/C=C/C(=O)N(C)CCc1ccccc1)[C@@H](C)O (relative stereo) [N^2—(N-Benzyloxycarbonylisoleucylglutamylthreonyl)-N^1-carboxylmethyl-N^1-trans-(3-methylphenylethylcarbamoylpropenoyl)hydrazine],"5,480 M^−1s^−1","1,020 M^−1s^−1",–,–,"60,500 M^−1s^−1","8,770 M^−1s^−1",760 M⁻¹ s⁻¹,38,–,–,–
"CC(C)[C@H](NC(=O)OCc1ccccc1)C(=O)NN(CC(=O)O)C(=O)/C=C/c1ccc(Cl)cc1 (stereo in doubt) [Cbz-Val-AAsp-CH═CH-4-Cl—Ph, N^2—(N-Benzyloxycarbonylvalyl)-N^1-carboxymethyl-N^1-trans-(3-(4-chlorophenyl)propenoyl)hydrazine]",–,–,–,–,–,–,19 M⁻¹ s⁻¹,–,–,–,–
"CC(C)[C@H](NC(=O)OCc1ccccc1)C(=O)NN(CC(=O)O)C(=O)/C=C/C(=O)NCc1ccccc1 (stereo in doubt) [Cbz-Val-AAsp-CH═CH—CONHCH2Ph, N^1-trans-(3-Benzylcarbamoylpropenoyl)-N^2—(N-benzyloxycarbonylvalyl)-N^1-carboxymethylhydrazine]",185 M⁻¹ s⁻¹,60 M⁻¹ s⁻¹,–,–,–,–,20 M⁻¹ s⁻¹,–,–,–,–
"CCOC(=O)/C=C/C(=O)N(CC(=O)O)NC(=O)[C@@H](NC(=O)OCc1ccccc1)C(C)C (stereo in doubt) [Cbz-Val-AAsp-CH═CH—COOEt, N^2—(N-Benzyloxycarbonylvalyl)-N^1-carboxymethyl-N^1-trans-(3-ethoxycarbonylpropenoyl)hydrazine]","8,000 M^−1s^−1","2,680 M^−1s^−1",–,–,–,389 M⁻¹ s⁻¹,"5,240 M^−1s^−1",–,–,–,–
"CC(C)[C@H](NC(=O)OCc1ccccc1)C(=O)NN(CC(=O)O)C(=O)/C=C\Cl (stereo in doubt) [Cbz-Val-AAsp-CH═CH—Cl, N^2—(N-Benzyloxycarbonylvalyl)-N^1-carboxymethyl-N^1-cis-(3-chloropropenoyl)hydrazine]",–,–,–,–,–,–,15 M⁻¹ s⁻¹,–,–,–,–

# More lines, main results first:
k2 Caspase-3 [3],k2 Caspase-7 [5],k2 Caspase-6 [6],"Km ([4]; read-out: KM with caspase-9, substrate Ac-LEHD-AFC) [µM]",SMILES,k2 Caspase-8 [1],k2 Caspase-10 [2],k2 Caspase-9 [4],k2 Caspase-2 [7] [M⁻¹ s⁻¹],selectivity: inhibits caspase-3 more potently than caspase-6 ([3]; ratio of k2 caspase-3 to caspase-6) [fold],selectivity: inhibits caspase-3 more potently than caspase-8 ([3]; ratio of k2 caspase-3 to caspase-8) [fold],k2 Caspase-3 ([3]; listed as Cbz-Asp-Glu-Val-AAsp-CH═CH—CON(Bzl)2)
"5,620,000 M^−1s^−1","875,000 M^−1s^−1","29,700 M^−1s^−1",–,CC(C)[C@H](NC(=O)[C@H](CCC(=O)O)NC(=O)[C@H](CC(=O)O)NC(=O)OCc1ccccc1)C(=O)NN(CC(=O)O)C(=O)C=CC(=O)N(Cc1cccc2ccccc12)Cc1cccc2ccccc12,"9,460 M^−1s^−1","32,500 M^−1s^−1",150 M⁻¹ s⁻¹,410,–,–,–
"2,640,000 M^−1s^−1","275,000 M^−1s^−1","9,500 M^−1s^−1",–,"CC(C)[C@H](NC(=O)[C@H](CCC(=O)O)NC(=O)[C@H](CC(=O)O)NC(=O)OCc1ccccc1)C(=O)NN(CC(=O)O)C(=O)/C=C/C(=O)N(C)Cc1ccccc1 (relative stereo) [Cbz-Asp-Glu-Val-AAsp-CH═CH—CON(CH3)CH2Ph, N^1-trans-(3-Benzylmethylcarbamoylpropenoyl)-N^2—(N-benzyloxycarbonylaspartylglutamylvalyl)-N^1-carboxymethylhydrazine]","90,300 M^−1s^−1","29,400 M^−1s^−1",820 M⁻¹ s⁻¹,660,–,–,–
"1,750,000 M^−1s^−1","249,000 M^−1s^−1","3,210 M^−1s^−1",–,"CC(C)[C@H](NC(=O)[C@H](CCC(=O)O)NC(=O)[C@H](CC(=O)O)NC(=O)OCc1ccccc1)C(=O)NN(CC(=O)O)C(=O)/C=C/C(=O)NCc1ccccc1 (relative stereo) [Cbz-Asp-Glu-Val-AAsp-CH═CH—CONHCH2Ph, N^1-trans-(3-Benzylcarbamoylpropenoyl)-N^2—(N-benzyloxycarbonylaspartylglutamylvalyl)-N^1-carboxymethylhydrazine]","78,235 M^−1s^−1","19,400 M^−1s^−1","2,010 M^−1s^−1",130,–,–,–
184 M⁻¹ s⁻¹,55 M⁻¹ s⁻¹,–,–,"CCCCNC(=O)/C=C/C(=O)N(CC(=O)O)NC(=O)[C@@H](NC(=O)OCc1ccccc1)C(C)C (stereo in doubt) [Cbz-Val-AAsp-CH═CH—CONH-nBu, N^2—(N-Benzyloxycarbonylvalyl)-N^1-trans-(3-butylcarbamoylpropenoyl)-N^1-carboxymethylhydrazine]",–,–,32 M⁻¹ s⁻¹,–,–,–,–
–,–,–,114,"CC(=O)N[C@@H](CC(C)C)C(=O)N[C@@H](CCC(=O)O)C(=O)N[C@@H](Cc1cnc[nH]1)C(=O)N[C@@H](CC(=O)O)C(=O)Nc1ccc2c(C(F)(F)F)cc(=O)oc2c1 [Ac-LEHD-AFC, reference compound] (Ac-LEHD-{AFC})",–,–,–,–,–,–,–
